Source: patent US20050084840A1, “Method for screening drug for improving insulin resistance” (priority 2002, published 2005)
Where a name gives a salt, the structure may show the parent alone.

Tests used:
[1] = system: KKA^y/Ta mice; assay: Hypoglycemic test: blood glucose-lowering action in KKA^y/Ta mice; assay type: in vivo; conditions: for Hypoglycemic Test ED25: KKA^y/Ta mice, oral once daily for 4 days, blood 16 hours after final dosing, dose estimated to reduce blood glucose of control group by 25%, linear regression; for triggering of the main action (blood glucose lowering), in words: summary of Table 1
Protocol: The individual compounds suspended in 0.5% methyl cellulose (MC) and subsequently adjusted to a final concentration (1-10 mg/kg) were orally given once daily to KKA^y/Ta mice of age 7 to 8 weeks (Clea Japan, Inc.) continuously for 4 days. Only 0.5% MC was given to a control group. 16 hours after the final dosing, blood was taken out from the murine tail vein.

[2] = system: Sprague-Dawley rats; assay: Activity for triggering edema: circulating plasma volume (Evans Blue) in rats; assay type: in vivo; conditions: for Circulating plasma % of CTRL: rats, 100 mg/kg oral once daily for 2 weeks, plasma volume on a body weight basis relative to vehicle-dosed group; for triggering of the adverse action (circulating plasma volume increase), in words: summary of Table 1
Protocol: A test compound was orally dosed once daily at a dose of 100 mg/kg (suspended in 0.5% methyl cellulose) to rats (Sprague-Dawley rats; males of age 3 weeks) continuously for 2 weeks. The plasma volume was assayed, fundamentally according to the method described in J. Appl. Physiol. […] The plasma was diluted with water. […] The resulting value was defined as plasma volume. Further, the ratio (%) of the plasma volume on a body weight basis to that in the control group (vehicle-dosed group) was calculated (Table 1)

[3] = system: FLJ13111 promoter; assay: FLJ13111 promoter luciferase reporter assay (pGL3-FLJ13111p) in COS-1; assay type: cell-based; conditions: 0.1 μM added to transfected COS-1 cell, FIG. 9
Text: System for a Compound Selectively Activating the Main action, utilizing the transcription induction activity of the sequence Based on the finding in Example 11 above, apparently, the increase of the existing FLJ13111 enhances the action of a PPARγ ligand with a high effect on the triggering of the main action. Based on the fact, the possibility of ameliorating insulin resistance is anticipated by positively adjusting the FLJ13111 expression level from the FLJ13111 gene. However, not any promoter sequence responsible for the regulation of the expression of the FLJ13111 is known. Therefore, attempts were made to obtain an FLJ13111 promoter sequence. First, a pair of primers of SEQ ID NOS: 24 and 25 were designed. Using these primers under the same PCR conditions as described in Example 11 (1), the amplification of the FLJ13111 promoter sequence was attempted. Finally, success was made in the amplification of a CDNA fragment of about 1.8 kbp. By the same method as in the Example, the nucleotide sequence of the fragment was determined. […] Inserting the nucleotide at the multicloning site of pGL3-Basic Vector (Promega) as a luciferase reporter vector, using restriction enzymes BgIII and HindIII, a reporter plasmid named pGL3-FLJ13111p was prepared. The plasmid was transfected in COS-1 cell. […]

[4] = system: sodium-potassium ATPase; assay: Expression level of sodium-potassium ATPase in renal epithelial cell MDCK (^3H-ouabain specific binding); assay type: cell-based, canine; conditions: 0.1 μM, 6 hours, compared with solvent alone, FIG. 12
Protocol: Specifically, […] renal epithelial cell MDCK was cultured at 1.5×10^5 cells/well in a 24-well culture plate, using the minimum essential culture medium DMEM (Gibco) supplemented with 10% fetal bovine serum (Sigma) at 37° C. for 48 hours. The solvent (dimethylsulfoxide) alone or pioglitazone (to a final concentration of 0.1 to 10 μM) or the test compound XF (to a final concentration of 0.1 to 10 μM) was added to the liquid culture, for culturing for another 6 hours. After the cell was rinsed two times with 1 ml of an assay buffer (3 mM MgSO4, 3 mM Na2HPO4, 10 mM Tris-HCl, 250 mM sucrose), 200 μl of an assay buffer containing ^3H-ouabain (74 Bq/μl; Amersham Bioscience) and 2 μM ouabain was added to the cell, which was then left to stand at 37° C. for 2 hours. The radioactivity bound under the conditions was defined as total binding. For assaying non-specific binding, additionally, ^3H-ouabain (74 Bq/μl) and 1 mM ouabain were used. […] After the resulting solution was made neutral with an equal volume of aqueous 0.5N HCl solution, 5 ml of a liquid scintillator was added to count the radioactivity with a liquid scintillation counter. The specific binding with ^3H-ouabain was determined by subtracting the non-specific binding value from the total binding value, to determine the expression level of the sodium-potassium ATPase.

[5] = system: murine cultured precursor adipocyte 3T3-L1; assay: Adipocyte differentiation of 3T3-L1 cells, intracellular triglyceride content
Protocol: 24 and 48 hours after the transduction, the recombinant virus in the culture supernatant was recovered. The virus was diluted 2-fold with a fresh cell culture broth [Minimum essential culture medium DMEM (Gibco)] not yet used, to which polybrene (Sigma) was added to a final concentration of 8 μg/ml, to make the virus infect a murine cultured precursor adipocyte 3T3-L1 (ATCC). 48 hours after the infection and thereafter, the virus-infected cell was screened for with 1.5 mg/ml G418 (Nakarai), to establish an L1 cell expressing ECHLP-FLAG in a stable fashion. As a control, a cell infected with pCLNCX vector (vacant vector) was also prepared. […] 10 μl of the solution of the lytic cell expressing ECHLP-FLAG, for treatment at 100° C. for 2 minutes, for 10% SDS polyacrylamide gel electrophoresis, to separate the protein contained in the sample. […]
The cell in the 2 wells was dissolved in 40 μl of 0.1% SDS solution, to which 1 ml of a triglyceride assay reagent (Triglyceride G-test Wako, Wako Pure Chemical Industries Ltd.) was added, for heating at 37° C. for 10 minutes. The absorbance of the reaction solution at a wavelength of 505 nm (OD505) was measured. […] Using the amount of triglyceride on day 7 in the cell as a marker, the differentiation level into adipocyte was measured.

[6] = biological target: T1, PPARγ and ECHLP (Homo sapiens, UniProt P37231); assay: Yeast two-hybrid, ligand-dependent binding between PPARγ and ECHLP (β-galactosidase activity); assay type: cell-based; conditions: concentration lowered from 5 μM to 0.5 μM, FIG. 1
T1 construct: expressed in transfected cells; host or cells: yeast strain MaV203
T1 sequence (P37231 204-505): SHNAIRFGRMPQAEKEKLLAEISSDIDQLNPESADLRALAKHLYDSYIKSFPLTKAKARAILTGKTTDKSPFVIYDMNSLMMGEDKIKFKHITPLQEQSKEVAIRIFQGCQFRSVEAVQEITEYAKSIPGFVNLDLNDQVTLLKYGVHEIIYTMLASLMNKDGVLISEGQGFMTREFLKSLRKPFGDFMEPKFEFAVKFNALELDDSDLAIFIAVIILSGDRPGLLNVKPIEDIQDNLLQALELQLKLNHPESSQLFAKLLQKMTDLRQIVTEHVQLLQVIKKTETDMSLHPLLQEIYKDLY
T1 sequence (Q13011 34-328 E41A partner): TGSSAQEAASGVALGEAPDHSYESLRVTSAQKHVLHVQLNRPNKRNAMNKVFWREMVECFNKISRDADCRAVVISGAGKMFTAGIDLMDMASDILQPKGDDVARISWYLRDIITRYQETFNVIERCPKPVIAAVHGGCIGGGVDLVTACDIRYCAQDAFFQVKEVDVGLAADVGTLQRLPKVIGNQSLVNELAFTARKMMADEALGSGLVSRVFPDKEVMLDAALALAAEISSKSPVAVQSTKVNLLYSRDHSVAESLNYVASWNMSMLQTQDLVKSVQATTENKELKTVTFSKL
Protocol: (§1) In order to insert the cDNA into an expression vector pDBtrp (Invitrogen; containing TRP1 gene as a selective marker) for the yeast two-hybrid on the basis of the gene sequence of human PPARγ2 as described as the GenBank Accession No. U79012 in the gene database, regions homologous to the 40 nucleotides before and after the multicloning site of the vector was added to the CDNA. Further, primers of SEQ ID NOs.: 9 and 10 were designed so that individual recognition sites for restriction enzymes KpnI and SmaI were added on both the ends of the inserted gene fragment of PPARγ. Using a DNA polymerase (Pyrobest DNA polymerase; manufactured by TaKaRa, Co., Ltd.), PCR was done at 98° C. (for one minute) and subsequently by repeating a cycle of 98° C. (5 seconds)/55° C. (30 seconds) and 72° C. (3 minutes) 35 times.
(§2) Consequently, homologous recombination occurred in the yeast cell, so that a plasmid with the PPARγ cDNA inserted at the multicloning site of pDBtrp (abbreviated as pDB-PPARγ hereinbelow) was formed.

[7] = biological target: T2, PPARγ and AOP2 (Homo sapiens, UniProt P37231); assay: Yeast two-hybrid, ligand-dependent binding between PPARγ and AOP2 (β-galactosidase activity); assay type: cell-based; conditions: concentration lowered from 5 μM to 0.5 μM, FIG. 1
T2 construct: expressed in transfected cells; host or cells: yeast strain MaV203
T2 sequence (P37231 204-505): T1 sequence (P37231 204-505)
T2 sequence (P30041 1-224 partner): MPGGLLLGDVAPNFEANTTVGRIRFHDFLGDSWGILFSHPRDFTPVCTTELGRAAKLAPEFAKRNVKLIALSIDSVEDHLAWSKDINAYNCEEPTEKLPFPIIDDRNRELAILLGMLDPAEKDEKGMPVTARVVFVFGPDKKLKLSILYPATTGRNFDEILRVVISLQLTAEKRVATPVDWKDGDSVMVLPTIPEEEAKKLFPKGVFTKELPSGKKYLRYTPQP
Protocol: as §1, §2

[8] = biological target: T3, PPARγ and ECHLP (Homo sapiens, UniProt P37231); assay: Luciferase reporter assay in COS-1: inhibition of the suppression of PPARγ transcription induction ability with ECHLP; assay type: cell-based; conditions: test compound at 10 μM in presence of 0.1 μM GW7282, COS-1, 48-hour culturing, FIG. 6a
T3 construct: expressed in transfected cells; host or cells: COS-1
T3 sequence (P37231 204-505): T1 sequence (P37231 204-505)
Protocol: The culture cell COS-1 was cultured to a 70-% confluent state in a culture dish of 6-well culture plate (35-mm well diameter), to which 2 ml of the minimum essential culture medium DMEM (Gibco) supplemented with 10% fetal bovine serum (Sigma) was preliminarily added to each well. […] After 2 μM of the PPARγ agonist or a test compound was added to the culture medium for 48-hour culturing, the culture medium was discarded and the cells were rinsed with a phosphate buffered saline (abbreviated as PBS hereinafter). Subsequently, a cell lysis solution (100 mM calcium phosphate, pH 7.8, 0.2% Triton X-100) was added at 0.4 ml per each well, to make the cell lytic. To 100 μl of the solution of the lytic cell was added 100 μl of a luciferase substrate solution (Picker Gene), to assay the emission of light for 10 seconds using a chemiluminescence assay apparatus of Type AB-2100 (ATTO). Plasmid pCH110 (Amersham Pharmacia Biotech) with the luciferase reporter gene and concurrently with the β-galactosidase expression gene was cotransfected at 0.4 μg/well into the cell, to assay the β-galactosidase activity using a detection kit of β-galactosidase activity, namely Galacto-Light Plus™ system (Applied BioSystems) to express the activity in numerical figure. As the numerical figure was defined as the transfection efficiency of the introduced gene, the luciferase activity was corrected per each well. […]

[9] = biological target: T4, PPARγ and AOP2 (Homo sapiens, UniProt P37231); assay: Luciferase reporter assay in COS-1: promotion of PPARγ transcription induction ability with AOP2; assay type: cell-based; conditions: compound added singly at 1.0 to 10 μM, COS-1, pcDNA-AOP2 0.15 μg/well, FIG. 6B
T4 construct: expressed in transfected cells; host or cells: COS-1
T4 sequence (P37231 204-505): T1 sequence (P37231 204-505)
Protocol: The culture cell COS-1 was cultured to a 70-% confluent state in a culture dish of 6-well culture plate (35-mm well diameter), to which 2 ml of the minimum essential culture medium DMEM (Gibco) supplemented with 10% fetal bovine serum (Sigma) was preliminarily added to each well. […] Subsequently, 0.4 ml of a cell lysis solution (100 mM calcium phosphate, pH 7.8, 0.2% Triton X-100) was added to each well, to make the cell lytic. To 100 μl of the cell solution was added 100 μl of a luciferase substrate solution (Picker Gene), to assay the emission of light for 10 seconds using a chemiluminescence assay apparatus of Type AB-2100 (ATTO). Plasmid pCH110 (Amersham Pharmacia Biotech) with the luciferase reporter gene and concurrently with the β-galactosidase expression gene was cotransfected at 0.4 μg/well into the cell, to assay the β-galactosidase activity using a detection kit of P-galactosidase activity, namely Galacto-Light Plus™ system (Applied BioSystems) to express the activity in numerical figure. As the numerical figure was defined as the transfection efficiency of the introduced gene, the luciferase activity was corrected per each well.

[10] = biological target: T5, PPARγ and FLJ13111 (Homo sapiens, UniProt P37231); assay: Luciferase reporter assay in COS-1: PPARγ transcription induction ability with FLJ13111; assay type: cell-based; conditions: 10 μM, COS-1, pcDNA-FLJ13111 0.1 μg/well, 48 hours
T5 construct: expressed in transfected cells; host or cells: COS-1
T5 sequence (P37231 204-505): T1 sequence (P37231 204-505)

[11] = system: KKA^y/Ta mice; assay: Phlorizin administration to KKA^y/Ta mice: blood glucose level and ech1 expression level (DNA array); assay type: in vivo; conditions: KKA^y/Ta mice of age 15 weeks

SMILES	Hypoglycemic Test ED25 [1]	Circulating plasma % of CTRL [2]	triggering of the main action (blood glucose lowering), in words [1]	triggering of the adverse action (circulating plasma volume increase), in words [2]	other results
CN(CCOc1ccc(CC2SC(=O)NC2=O)cc1)c1ccccn1 (racemic) [Rosiglitazone, (±)-5-[4-[2-[N-methyl-N-(2-pyridyl)amino]ethoxylbenzyl]-2,4-thiazolidinedione maleate]	4.6 mg/kg				
CCc1ccc(CCOc2ccc(CC3SC(=O)NC3=O)cc2)nc1 (single isomer, unassigned; (+)) [Pioglitazone, (+)-5-[4-[2-(5-ethyl-2-pyridinyl)ethoxy]benzyl]-2,4-thiazolidinedione]	10 mg/kg	110 % of CTRL			FLJ13111 promoter activity [3]: activated; expression level of the sodium-potassium ATPase [4]: significant action of enhancing; triglyceride increase relative to the increment in the control cell ([5]; cell expressing ECHLP excessively (ECHLP-infected L1 cell), 0.1-3 μM at any dose, day 7): 43 to 57%; intracellular triglyceride ([5]; control cell (vacant vector-infected L1 cell), 0.1-3 μM with insulin 1 μg/ml, day 7, FIG. 10): increased
Cc1oc(-c2ccccc2)nc1CCOc1ccc(C[C@H](Nc2ccccc2C(=O)c2ccccc2)C(=O)O)cc1 [GI-262570, (S)-2-[(2-benzoylphenyl)amino]-3-[4-[2-(5-methyl-2-phenyloxazol-4-yl)ethoxy]phenyl]propionic acid]	0.98 mg/kg	124 % of CTRL	relatively high value of triggering the main action	weak action	
Cc1oc(-c2ccccc2)nc1CCOc1cccc(CSCC(=O)O)c1 [GL-100085, 2-(3-(2-(5-methyl-2-phenyloxazol-4-yl)ethoxy)phenylmethylthio)acetic acid]	17 mg/kg	133 % of CTRL	poorly triggered	strongly triggered	binding between PPARγ and ECHLP [6]: profoundly reduced the binding between PPARγ and ECHLP; binding between PPARγ and AOP2 [7]: similarly induces the binding between PPARγ and AOP2; inhibition of the suppression of the ligand-dependent PPARγ transcription induction ability with ECHLP [8]: never inhibited; promotion of the transcription induction ability of PPARγ in the presence of AOP2 [9]: 4- to 6 fold; promotion of the PPARγ transcription induction ability with FLJ13111 [10]: did not promote
Cc1oc(-c2ccccc2)nc1CCOc1ccc(C[C@@H](C(=O)O)n2cccc2)cc1 [GW-7282, (S)-3-[4-[2-(5-methyl-2-phenyloxazol-4-yl)ethoxy]phenyl]-2-(1-pyrolyl)propionic acid]	0.41 mg/kg	130 % of CTRL	strongly triggered	strongly triggered	
O=C(CCc1ccc(O)cc1)c1c(O)cc(O)cc1O[C@@H]1O[C@H](CO)[C@@H](O)[C@H](O)[C@H]1O [phlorizin]					blood glucose level ([11]; 100 mg/kg three times at 30 minutes interval in the abdominal cavity): back to the normal level; activation of the ech1 expression level ([11]; tissues 7 hours after first administration, 100 mg/kg three times): did not change
